The values that follow come from patent US20220313626A1, “SMALL MOLECULE INHIBITORS FOR TREATING CANCER IN A SUBJECT HAVING TUMORS WITH HIGH INTERSTITIAL PRESSURE” (GUANGZHOU MAXINOVEL PHARMACEUTICALS CO., LTD., priority 2019, published 2022).

The test system of this experiment is 4T1 tumor cells. Description: Anti-tumor efficacy in the subcutaneous 4T1 murine breast cancer model in BALB/c mice. Conditions: 4T1, BALB/c mice; for TGI / Tumor Volume: PO, BID, 20 days. The format is in vivo. The method, then: Materials required for the experiment: Antibody: mouse PD-1 antibody, Product specifications: 7.09 mg/mL (50 mg/mL), Lot No.: 695318A1 purchased from BioXcell, storage at 4 °C. Experiment animal: 60 BALB/C mice, female, 6˜8 weeks old, 20˜23 g, purchased from Shanghai Lingchang Biotechnology Co, Ltd. Formulation material: castor oil (Cremophor RH40), CAS No.: 61788-85-0, Lot No.: 29761847G0, purchased from Shanghai Xietai Chemical Co. Ltd.; β-cyclodextrin (SBE-β-CD), CAS No.:128446-35-5, Lot No.: 20180110, purchased from Shanghai Shaoyuan Chemical Co. Ltd.; RPMI-1640 culture medium, Art. No.: 1869036, Lot No.:11875-093, purchased from Gibco Co. Ltd.; PBS, Art. No.: SH30256.01, Lot No.: AB10141338, purchased from HyClone Co. Ltd.; Fetal bovine serum: CAS No.: 10099-141, Lot No.: 1966174C, purchased from Gibco Co. Ltd.
Cell preparation and implantation: 4T1 cells (CRL-2539™) were cultured with RPMI 1640 supplemented with 10% heat inactivated FBS at 37° C. in 5% CO2 incubator. Cells were passaged 3 times a week. Cells were harvested, counted and passaged, inoculated when around 70% confluent.
Tumor cell inoculation and group administration: The 50 uL cell suspension containing 1×10^5 4T1 tumor cells (cells suspended in base RPMI-1640 medium) was inoculated into the fourth fat pad of the left abdomen of mice. On the second day after inoculation, according to the order of tumor inoculation, stratified randomization was used to group and start the administration on the day of grouping.
Preparation of test substances: Preparation of formulation: 490 mL of sterile water was added into the volumetric flask with magnetic stirring to have a vortex. 100 g of castor oil (Cremophor RH40) was added with a spoon slowly into the vortex and the solution was kept stirring. 200 g of β-cyclodextrin (SBE-β-CD) was added while the solution was kept stirring until the solution was clear, and the total volume was set to 1000 mL, which contained 10% (w/v) Cremophor RH40+20% (w/v) an aqueous solution of SBE-β-CD.
Preparation of Compound Suspension: 178.88 mg compound was weighed and 14.817 mL 10% (w/v) Cremophor RH40+20% (w/v) SBE-β-CD aqueous solution were added. The suspension solution with a concentration of 12.0 mg/mL was obtained by fully mixing with magnetic stirring. 7.0 mL of the compound suspension solution with concentration of 12.0 mg/mL was pipetted and 7.0 mL aqueous formulation solution was added. The suspension solution with a concentration of 6.0 mg/mL was obtained by fully mixing with magnetic stirring, 7.0 mL of the compound suspension solution with concentration of 6.0 mg/mL was pipetted and 7.0 mL aqueous formulation solution was added. The suspension solution with a concentration of 3.0 mg/mL was obtained by fully mixing with magnetic stirring. 7.0 mL of the compound suspension solution with concentration of 3.0 mg/mL was pipetted and 7.0 mL aqueous formulation solution was added. The suspension solution with a concentration of 1.5 mg/mL was obtained by fully mixing with magnetic stirring. The compound suspension solution was prepared once a day.
Preparation of mPD-1 Antibody: 0.339 mL mPD-L1 antibody (7.09 mg/mL) original solution was pipetted and 2.061 mL PBS solution was added. The solution was fully mixed and the final concentration of 1 mg/mL solution was obtained.
Procedure: The mice in the vehicle group were weighed and recorded in the electronic balance according to their numbers. The mice in the vehicle group were given prepared formulation solution twice a day by oral administration according to their body weight with a capacity of 0.1 mL/10 g. Each mouse spent about 20 seconds and 10 mice in each group shared for about 5 minutes.
The mice in the antibody (10 mg/kg) group were weighed and recorded in the electronic balance according to their numbers. The mice in the antibody group were given prepared antibody solution twice a week by IP administration according to their body weight with a capacity of 0.1 ml/10 g. […]

Broadly, the TGI is the reduction of tumour growth relative to the control group. A low value points to little slowing of growth.

Structures are written as SMILES.

As for `Cc1c(/C=C/c2cc(CN[C@@](C)(CO)C(=O)O)ccc2C(F)(F)F)cccc1-c1ccccc1` [Compound], the TGI came to 19.96% (15 mg/kg), 33.34% (30 mg/kg), 36.32% (60 mg/kg) and 41.55% (120 mg/kg). Further, the “Tumor Volume” value runs as follows: (15 mg/kg) 689.03 ± 43.97 mm^3; (30 mg/kg) 573.9 ± 43.18 mm^3; (60 mg/kg) 548.24 ± 31.39 mm^3; (120 mg/kg) 503.16 ± 32.93 mm^3. For the same compound, the minimum effective dose (p<0.05) worked out at 30 mpk.
